Assay results taken from ChEMBL document CHEMBL5465560, “Selectivity Literature for EUbOPEN Chemogenomic Library” (2024).

Columns and labels:
[1] = biological target: Mitogen-activated protein kinase kinase kinase kinase 5 (Homo sapiens) (UniProt Q9Y4K4); test: Selectivity interaction (KinomeScan (DiscoverX)) EUB0000695a MAP4K5; conditions: at 100 nM
[2] = biological target: Cyclin-dependent kinase 17 (Homo sapiens) (UniProt Q00537); test: Selectivity interaction (KinomeScan (DiscoverX)) EUB0000666a CDK17; conditions: at 10 µM
[3] = biological target: Ribosomal protein S6 kinase alpha-4 (Homo sapiens) (UniProt O75676); conditions: at 10 µM
[4] = biological target: T1, Cyclin-dependent kinase-like 2 (Homo sapiens) (UniProt Q92772); conditions: at 10 µM
T1 sequence (whole entry): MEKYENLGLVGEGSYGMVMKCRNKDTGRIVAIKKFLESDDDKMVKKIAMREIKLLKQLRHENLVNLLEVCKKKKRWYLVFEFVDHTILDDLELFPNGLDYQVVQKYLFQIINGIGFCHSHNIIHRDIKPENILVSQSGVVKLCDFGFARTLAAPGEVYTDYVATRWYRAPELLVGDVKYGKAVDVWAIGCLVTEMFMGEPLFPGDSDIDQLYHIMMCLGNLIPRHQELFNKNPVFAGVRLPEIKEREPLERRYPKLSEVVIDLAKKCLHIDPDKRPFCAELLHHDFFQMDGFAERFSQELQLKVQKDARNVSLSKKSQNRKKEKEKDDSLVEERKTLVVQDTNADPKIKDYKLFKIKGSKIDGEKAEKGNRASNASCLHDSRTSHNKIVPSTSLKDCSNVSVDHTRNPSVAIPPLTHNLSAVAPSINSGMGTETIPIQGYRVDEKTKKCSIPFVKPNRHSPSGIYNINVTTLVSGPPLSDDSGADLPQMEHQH

[5] = biological target: DNA (cytosine-5)-methyltransferase 1 (Homo sapiens) (UniProt P26358); test: Selectivity interaction (Methyltransferase screen (radiometric assays, panel of 8 PRMTs, 21 protein lysine methyltransferases, 3 DNA methyltransferases, and one RNA methyltransferase)) EUB0000271b DNMT1
[6] = biological target: Calcium/calmodulin-dependent protein kinase type 1D (Homo sapiens) (UniProt Q8IU85); test: Selectivity interaction (Kinase panel (Invitrogen)) EUB0000639a CAMK1D; conditions: at 200 nM
[7] = biological target: T2, Mitogen-activated protein kinase kinase kinase 3 (Homo sapiens) (UniProt Q99759); test: Selectivity interaction (ActivX KiNativ screen (kinase selectivity in THP-1 cell lysates)) EUB0000639a MAP3K3; type: subcellular; conditions: lysate, at 0.01 µM
T2 sequence (whole entry): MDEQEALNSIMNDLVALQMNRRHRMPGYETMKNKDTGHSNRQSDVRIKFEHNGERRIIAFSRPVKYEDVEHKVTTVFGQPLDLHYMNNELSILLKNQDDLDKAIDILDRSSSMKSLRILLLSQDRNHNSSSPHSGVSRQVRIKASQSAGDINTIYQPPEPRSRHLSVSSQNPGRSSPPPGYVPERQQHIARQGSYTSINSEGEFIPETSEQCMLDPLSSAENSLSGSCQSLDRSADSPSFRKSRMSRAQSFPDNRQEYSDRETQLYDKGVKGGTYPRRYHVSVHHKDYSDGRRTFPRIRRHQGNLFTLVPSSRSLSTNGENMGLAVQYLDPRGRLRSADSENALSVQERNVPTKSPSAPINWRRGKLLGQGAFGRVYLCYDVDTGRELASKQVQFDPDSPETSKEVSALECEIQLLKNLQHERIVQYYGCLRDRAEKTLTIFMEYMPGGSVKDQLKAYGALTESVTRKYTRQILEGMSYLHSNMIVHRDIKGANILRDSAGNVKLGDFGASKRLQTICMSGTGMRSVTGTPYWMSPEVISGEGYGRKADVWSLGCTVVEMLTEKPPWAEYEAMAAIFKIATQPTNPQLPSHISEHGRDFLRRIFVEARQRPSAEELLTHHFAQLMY

[8] = biological target: Serine/threonine-protein kinase PRP4 homolog (Homo sapiens) (UniProt Q13523); test: Selectivity interaction (ActivX KiNativ screen (kinase selectivity in THP-1 cell lysates)) EUB0000639a PRPF4; type: subcellular; conditions: lysate, at 0.04 µM
[9] = biological target: T3, Aurora kinase C (Homo sapiens) (UniProt Q9UQB9); test: Selectivity interaction (ActivX KiNativ screen (kinase selectivity in THP-1 cell lysates)) EUB0000639a AURKC; type: subcellular; conditions: lysate
T3 sequence (whole entry): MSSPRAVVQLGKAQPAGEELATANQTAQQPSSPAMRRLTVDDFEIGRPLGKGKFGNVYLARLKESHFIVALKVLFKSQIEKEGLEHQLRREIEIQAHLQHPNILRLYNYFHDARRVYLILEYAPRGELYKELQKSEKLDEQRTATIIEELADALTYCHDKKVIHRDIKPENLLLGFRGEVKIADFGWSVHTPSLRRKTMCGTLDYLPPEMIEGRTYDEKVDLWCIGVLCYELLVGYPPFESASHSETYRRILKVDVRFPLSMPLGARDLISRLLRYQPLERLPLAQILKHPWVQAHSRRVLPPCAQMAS

[10] = biological target: cAMP-dependent protein kinase catalytic subunit beta (Homo sapiens) (UniProt P22694); conditions: at 10 µM
[11] = biological target: T4, Serine/threonine-protein kinase Nek3 (Homo sapiens) (UniProt P51956); test: Selectivity interaction (KinomeScan (DiscoverX)) EUB0000092b NEK3; conditions: at 10 µM
T4 sequence (whole entry): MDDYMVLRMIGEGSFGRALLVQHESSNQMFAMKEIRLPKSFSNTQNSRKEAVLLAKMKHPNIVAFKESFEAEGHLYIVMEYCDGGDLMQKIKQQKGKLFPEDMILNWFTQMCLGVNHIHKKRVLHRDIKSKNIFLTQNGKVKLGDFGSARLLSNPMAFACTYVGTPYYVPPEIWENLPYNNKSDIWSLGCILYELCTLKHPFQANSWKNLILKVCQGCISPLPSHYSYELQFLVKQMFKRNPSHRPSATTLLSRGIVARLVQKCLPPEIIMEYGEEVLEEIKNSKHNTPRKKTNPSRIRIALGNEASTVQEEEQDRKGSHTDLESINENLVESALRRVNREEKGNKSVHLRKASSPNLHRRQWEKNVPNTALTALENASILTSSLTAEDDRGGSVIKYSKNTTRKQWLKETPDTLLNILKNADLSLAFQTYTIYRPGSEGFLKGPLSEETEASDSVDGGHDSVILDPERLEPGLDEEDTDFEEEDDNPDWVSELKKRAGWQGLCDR

DNA (cytosine-5)-methyltransferase 1 (Homo sapiens), sequence (P26358 whole entry): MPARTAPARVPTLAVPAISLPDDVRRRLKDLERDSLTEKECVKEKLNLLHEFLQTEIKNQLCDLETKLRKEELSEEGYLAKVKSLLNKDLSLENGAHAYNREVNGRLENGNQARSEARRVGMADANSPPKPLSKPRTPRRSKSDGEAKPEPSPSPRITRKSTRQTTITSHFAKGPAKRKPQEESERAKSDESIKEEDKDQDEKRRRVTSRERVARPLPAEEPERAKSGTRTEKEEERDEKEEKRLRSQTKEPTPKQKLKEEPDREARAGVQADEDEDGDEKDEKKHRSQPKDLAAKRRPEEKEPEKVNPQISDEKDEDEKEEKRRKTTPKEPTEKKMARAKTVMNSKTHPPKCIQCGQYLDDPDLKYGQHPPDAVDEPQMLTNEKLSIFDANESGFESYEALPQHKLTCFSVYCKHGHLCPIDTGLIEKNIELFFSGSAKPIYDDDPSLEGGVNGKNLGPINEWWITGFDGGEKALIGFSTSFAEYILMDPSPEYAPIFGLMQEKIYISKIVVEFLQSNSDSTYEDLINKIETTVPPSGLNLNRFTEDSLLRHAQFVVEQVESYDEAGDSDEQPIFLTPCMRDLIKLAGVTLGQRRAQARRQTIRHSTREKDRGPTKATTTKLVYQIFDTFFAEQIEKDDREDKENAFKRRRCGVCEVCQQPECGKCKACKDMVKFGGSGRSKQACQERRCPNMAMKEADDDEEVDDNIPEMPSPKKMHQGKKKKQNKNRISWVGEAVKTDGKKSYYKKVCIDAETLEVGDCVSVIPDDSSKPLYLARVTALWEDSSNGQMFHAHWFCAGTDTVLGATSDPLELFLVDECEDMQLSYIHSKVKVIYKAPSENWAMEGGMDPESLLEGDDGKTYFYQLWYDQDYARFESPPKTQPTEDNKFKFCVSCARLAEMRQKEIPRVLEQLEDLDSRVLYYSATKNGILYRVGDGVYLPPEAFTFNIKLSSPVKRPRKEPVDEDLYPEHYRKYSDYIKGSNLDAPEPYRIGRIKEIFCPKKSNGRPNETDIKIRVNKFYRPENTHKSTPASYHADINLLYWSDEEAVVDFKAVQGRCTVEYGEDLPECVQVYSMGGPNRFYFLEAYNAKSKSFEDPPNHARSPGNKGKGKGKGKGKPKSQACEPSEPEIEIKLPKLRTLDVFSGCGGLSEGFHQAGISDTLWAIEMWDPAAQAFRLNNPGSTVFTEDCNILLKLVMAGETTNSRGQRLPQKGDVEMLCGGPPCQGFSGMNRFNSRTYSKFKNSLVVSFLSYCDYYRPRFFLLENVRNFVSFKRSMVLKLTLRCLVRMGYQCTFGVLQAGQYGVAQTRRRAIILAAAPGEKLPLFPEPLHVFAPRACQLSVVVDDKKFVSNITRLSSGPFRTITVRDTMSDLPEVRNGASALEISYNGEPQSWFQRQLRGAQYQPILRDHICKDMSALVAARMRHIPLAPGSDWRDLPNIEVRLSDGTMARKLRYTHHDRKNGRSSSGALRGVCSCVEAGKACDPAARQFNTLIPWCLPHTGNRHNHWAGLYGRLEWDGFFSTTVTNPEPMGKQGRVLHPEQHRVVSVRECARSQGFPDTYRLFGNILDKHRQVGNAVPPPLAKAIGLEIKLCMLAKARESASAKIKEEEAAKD
Cyclin-dependent kinase 17 (Homo sapiens), sequence (Q00537 whole entry, looked up): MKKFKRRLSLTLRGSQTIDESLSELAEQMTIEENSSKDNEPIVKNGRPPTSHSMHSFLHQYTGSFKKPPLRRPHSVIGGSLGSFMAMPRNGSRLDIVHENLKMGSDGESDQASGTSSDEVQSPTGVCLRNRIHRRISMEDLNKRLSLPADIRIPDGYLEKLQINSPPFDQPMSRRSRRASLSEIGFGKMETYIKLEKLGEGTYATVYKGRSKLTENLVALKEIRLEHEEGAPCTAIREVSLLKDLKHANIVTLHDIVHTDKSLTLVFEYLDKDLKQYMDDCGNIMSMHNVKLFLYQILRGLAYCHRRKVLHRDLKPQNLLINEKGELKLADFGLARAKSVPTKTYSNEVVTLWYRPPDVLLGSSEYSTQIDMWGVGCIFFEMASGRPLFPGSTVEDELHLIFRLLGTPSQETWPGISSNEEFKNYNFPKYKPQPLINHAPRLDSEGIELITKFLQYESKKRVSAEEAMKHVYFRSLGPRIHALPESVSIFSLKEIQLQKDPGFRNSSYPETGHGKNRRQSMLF
Serine/threonine-protein kinase PRP4 homolog (Homo sapiens), sequence (Q13523 whole entry): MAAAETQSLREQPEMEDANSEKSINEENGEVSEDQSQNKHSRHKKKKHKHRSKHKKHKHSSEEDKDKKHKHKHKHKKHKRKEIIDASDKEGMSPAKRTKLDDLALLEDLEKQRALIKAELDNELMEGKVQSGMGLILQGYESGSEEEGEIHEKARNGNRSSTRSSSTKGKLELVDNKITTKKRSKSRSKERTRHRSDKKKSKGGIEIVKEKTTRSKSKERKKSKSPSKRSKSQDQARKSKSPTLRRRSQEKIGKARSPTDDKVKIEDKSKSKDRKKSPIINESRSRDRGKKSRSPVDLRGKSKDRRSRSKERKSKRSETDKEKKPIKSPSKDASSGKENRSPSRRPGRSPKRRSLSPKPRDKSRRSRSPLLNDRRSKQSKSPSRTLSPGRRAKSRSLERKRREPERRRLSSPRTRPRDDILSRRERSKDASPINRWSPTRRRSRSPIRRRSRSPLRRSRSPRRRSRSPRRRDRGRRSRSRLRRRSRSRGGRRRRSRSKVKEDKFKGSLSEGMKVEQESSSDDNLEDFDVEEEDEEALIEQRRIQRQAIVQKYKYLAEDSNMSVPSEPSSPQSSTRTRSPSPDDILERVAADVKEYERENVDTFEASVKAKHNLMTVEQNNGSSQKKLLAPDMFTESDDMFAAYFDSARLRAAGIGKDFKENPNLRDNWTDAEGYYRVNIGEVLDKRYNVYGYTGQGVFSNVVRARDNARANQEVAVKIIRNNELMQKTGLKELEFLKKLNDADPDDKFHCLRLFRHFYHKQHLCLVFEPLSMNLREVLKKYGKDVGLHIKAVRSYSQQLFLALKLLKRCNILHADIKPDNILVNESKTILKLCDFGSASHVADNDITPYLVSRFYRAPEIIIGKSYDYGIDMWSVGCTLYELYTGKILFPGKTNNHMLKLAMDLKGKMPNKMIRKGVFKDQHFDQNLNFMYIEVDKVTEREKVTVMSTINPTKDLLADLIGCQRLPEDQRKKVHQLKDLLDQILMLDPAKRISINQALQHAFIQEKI
Mitogen-activated protein kinase kinase kinase kinase 5 (Homo sapiens), sequence (Q9Y4K4 whole entry, looked up): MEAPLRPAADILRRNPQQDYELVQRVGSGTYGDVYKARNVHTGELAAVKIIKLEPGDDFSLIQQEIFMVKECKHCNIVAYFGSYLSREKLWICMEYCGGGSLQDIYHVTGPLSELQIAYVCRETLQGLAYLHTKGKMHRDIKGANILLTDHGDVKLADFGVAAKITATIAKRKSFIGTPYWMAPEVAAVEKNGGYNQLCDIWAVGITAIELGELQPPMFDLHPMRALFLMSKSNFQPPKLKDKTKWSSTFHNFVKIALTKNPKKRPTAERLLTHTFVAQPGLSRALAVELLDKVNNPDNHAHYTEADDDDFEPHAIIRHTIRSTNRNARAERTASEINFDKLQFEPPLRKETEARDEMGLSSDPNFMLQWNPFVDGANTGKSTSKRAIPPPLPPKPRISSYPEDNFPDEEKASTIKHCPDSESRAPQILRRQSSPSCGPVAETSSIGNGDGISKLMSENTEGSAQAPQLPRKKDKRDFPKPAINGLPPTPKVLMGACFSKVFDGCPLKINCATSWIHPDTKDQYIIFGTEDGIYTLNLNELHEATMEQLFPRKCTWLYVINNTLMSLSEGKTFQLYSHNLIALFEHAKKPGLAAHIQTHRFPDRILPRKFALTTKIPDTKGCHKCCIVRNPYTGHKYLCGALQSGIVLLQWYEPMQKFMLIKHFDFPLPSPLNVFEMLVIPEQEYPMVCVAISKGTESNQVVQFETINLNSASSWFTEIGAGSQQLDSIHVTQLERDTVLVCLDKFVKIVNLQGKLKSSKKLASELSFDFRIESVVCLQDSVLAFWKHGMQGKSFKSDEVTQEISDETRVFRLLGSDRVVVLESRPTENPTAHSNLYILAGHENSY
Ribosomal protein S6 kinase alpha-4 (Homo sapiens), sequence (O75676 whole entry, looked up): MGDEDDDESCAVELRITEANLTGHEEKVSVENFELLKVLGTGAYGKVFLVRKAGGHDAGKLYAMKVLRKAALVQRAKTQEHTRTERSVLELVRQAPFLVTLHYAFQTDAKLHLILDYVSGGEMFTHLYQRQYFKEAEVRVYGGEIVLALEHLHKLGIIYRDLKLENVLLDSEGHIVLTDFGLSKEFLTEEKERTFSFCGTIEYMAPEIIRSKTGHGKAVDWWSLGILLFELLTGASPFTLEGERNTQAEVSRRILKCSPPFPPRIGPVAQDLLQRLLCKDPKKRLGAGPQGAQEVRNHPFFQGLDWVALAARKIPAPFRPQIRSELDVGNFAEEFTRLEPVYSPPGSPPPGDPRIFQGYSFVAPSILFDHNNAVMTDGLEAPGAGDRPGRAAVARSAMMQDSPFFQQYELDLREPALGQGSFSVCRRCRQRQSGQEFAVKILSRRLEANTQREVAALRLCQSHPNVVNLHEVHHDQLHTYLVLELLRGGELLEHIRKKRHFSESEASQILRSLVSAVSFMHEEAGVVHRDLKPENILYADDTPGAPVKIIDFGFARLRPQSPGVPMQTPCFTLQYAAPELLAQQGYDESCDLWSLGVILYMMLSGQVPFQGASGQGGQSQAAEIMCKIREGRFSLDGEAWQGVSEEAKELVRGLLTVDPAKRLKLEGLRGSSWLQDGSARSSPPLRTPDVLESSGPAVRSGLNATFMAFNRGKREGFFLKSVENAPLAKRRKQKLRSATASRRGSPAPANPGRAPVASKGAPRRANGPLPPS

`Cc1cc(F)c(C(=O)Nc2cccc(-c3nncn3C(C)C)n2)cc1-n1cnc(C2CC2)c1` was tested, and the % of control [1] was 100%.
With `O=C(NOC[C@H](O)CO)c1ccc(F)c(F)c1Nc1ccc(I)cc1F` the % of control [2] was 95%.
For `Cc1cc([C@@H](C)Nc2ccccc2C(=O)O)c2nc(N3CCOCC3)cc(=O)n2c1` [AZD-6482], the % of control [3] was 100% and the % of control [4] was 91%.
Compound `Cc1cc(C)cc([C@@H]2c3cc(C)ccc3NC(=O)CN2C(=O)c2ccc(Br)s2)c1` has a % of activity ([5]; at 1 µM) of 98.3% and a % of activity ([5]; at 10 µM) of 97.7%.
Compound `CC[C@@H]1[C@H](F)C(=O)N[C@@H]1COc1nccc2cc(C(N)=O)c(OC)cc12` [ZIMLOVISERTIB] has a % of inhibition [6] of 2.36%, a % of inhibition [7] of -6.1% and a % of inhibition [8] of 4.1%. For the same compound, the % of inhibition ([9]; at 0.01 µM) was 4.9%, the % of inhibition ([9]; at 0.04 µM) was -1.3% and the % of inhibition ([9]; at 0.2 µM) was -1%. It also gave a % of inhibition ([9]; at 1 µM) of 20% and a % of inhibition ([9]; at 5 µM) of 64.4%.
`CCN(CC)CCCCNc1ncc2cc(-c3cc(OC)cc(OC)c3)c(NC(=O)NC(C)(C)C)nc2n1` was tested, and the % of control [10] was 100%.
With `CCC(=O)N1CCN(c2ccc(-n3c(=O)ccc4cnc5ccc(-c6cnc7ccccc7c6)cc5c43)cc2C(F)(F)F)CC1` the % of control [11] was 100%.
